Results reported in patent US20210315893A1 (Galapagos NV, priority 2017, published 2021).

Columns and labels:
[1] = molecular target: T1, human GPCR sphingosine 1-phosphate receptor 2 (Homo sapiens, UniProt O95136); experiment: S1PR2 antagonist Ca2+ flux assay; format: cell-based; settings: antagonist mode, CHO-S1PR2 cells, S1P at EC80, Ca2+ fluorescence; read-out: S1P2 EC50 (nM), S1P2 antagonist EC50
T1 construct: host or cells: CHO
Procedure, shortened: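 Antagonist mode: 15 min after compound addition, S1P (EC80) stimulates Fluo8-loaded, 1 h-starved CHO-S1PR2 cells, Ca2+ read over 3 min; a prior 3-min read checks compound agonism. EC50 from peak/baseline fluorescence ratio, normalised versus vehicle and S1P EC50 (antagonist) or EC100 (agonist).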

[2] = molecular target: T2, human GPCR sphingosine 1-phosphate receptor 5 (Homo sapiens, UniProt Q9H228); experiment: S1PR5 selectivity Ca2+ flux assay (antagonist readout); format: cell-based; settings: CHO cells overexpressing human S1PR5 and Gq, agonist at EC80 (20 nM), read-out: S1P5 EC50 (nM), S1P5 antagonist EC50
T2 construct: host or cells: CHO
T2 sequence (Q9H228 whole entry): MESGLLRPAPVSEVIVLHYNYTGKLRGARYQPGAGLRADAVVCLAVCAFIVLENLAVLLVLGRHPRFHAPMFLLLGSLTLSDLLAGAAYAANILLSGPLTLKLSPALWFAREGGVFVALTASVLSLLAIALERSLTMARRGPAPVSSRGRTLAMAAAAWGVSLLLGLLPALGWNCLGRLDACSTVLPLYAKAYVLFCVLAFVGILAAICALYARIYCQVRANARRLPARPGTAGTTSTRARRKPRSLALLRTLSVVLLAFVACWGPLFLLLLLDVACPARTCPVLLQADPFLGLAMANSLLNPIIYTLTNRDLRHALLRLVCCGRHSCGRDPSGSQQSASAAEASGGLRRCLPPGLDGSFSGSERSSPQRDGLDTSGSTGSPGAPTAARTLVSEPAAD
Excerpt: To evaluate the selectivity of the compounds for S1PR2 over S1PR1 and S1PR5, asimilar assay set upas described above for theS1PR2 calcium flux assays waspeformed: CHO cells stably overexpressing human GPCR sphingosine 1-phosphate receptor 1 and Gq protein (Euroscreen, FAST-0197A) or overexpressing human GPCR sphingosine 1-phosphate receptorS5 and Gq protein were used (Perkin Elmer, ES-593-A). In case of the S1PR5 assay triggering was done with an SPR5 specific agonist instead of with S1P (Hobson et al., 2015).
(§1) 50 μL of Chinese hamster ovary (CHO) cells stably overexpressing human S1PR1 or S1PR5 are seeded in 384 well sterile microplates (7,500 cells/well or 10,000 cells/well respectively) and are incubated overnight at 37° C. under 5% CO2. Cells are subsequently washed twice with 25 μL/well of starvation medium (F-12 Ham's medium containing 0.1% fatty acid free bovine serum albumin (FAF BSA)). After one h starvation at 37° C., 5% CO2, cells are loaded with 25 μL of Fluo 8 dye diluted in Hank's balanced salt solution (HBSS) with 20 mM Hepes complemented with 5 mM of probenecid following the recommendations of the manufacturer (one h at 37° C., 5% CO2). Dilution series of compounds are prepared in HBSS buffer with 20 mM Hepes and 0.1% BSA (FAF). 10 μL of diluted compound is added to the cells using the FDSS/pCELL and intracellular calcium changes are measured immediately by recording fluorescence during 3 min (agonist readout). The ratio of maximal signal over background before compound injection is used to determine compound response.
After an incubation of 15 min at 37° C., following the agonist readout, the plates are transferred to the FDSS/pCELL reader. Cells are stimulated with 10 μL of EC80 concentration of S1P (6 nM for S1P1 and 20 nM for S1P5) and intracellular calcium changes are measured immediately by recording fluorescence during three min (antagonist readout). The ratio of maximal signal over background before S1P injection was used to determine the inhibitory effect ofthe compound.
(§2) Raw data obtained in each experiment (ratio of maximal signal over background for calcium mobilization assays) were normalized in percentage of activation (agonist mode) or inhibition (antagonist mode) using positive and negative experiment controls. Each individual plate quality was assessed by evaluation of Z′ factor calculated with raw data using the following equation
(§3) Y=bottom+(top−bottom)/(1+(10^(Log IC50−X)*Hillslope)) where X is the logarithm of the concentration of the compound

[3] = molecular target: T3, S1PR2 (Homo sapiens, UniProt O95136); experiment: S1PR2 binding assay (competition with radioactively labeled S1P, SpA); settings: membranes from stable cell line over expressing S1PR2, SpA beads; read-out: S1P2 EC50 (nM), S1PR2 binding EC50
T3 construct: expressed in transfected cells
T3 sequence (O95136 whole entry): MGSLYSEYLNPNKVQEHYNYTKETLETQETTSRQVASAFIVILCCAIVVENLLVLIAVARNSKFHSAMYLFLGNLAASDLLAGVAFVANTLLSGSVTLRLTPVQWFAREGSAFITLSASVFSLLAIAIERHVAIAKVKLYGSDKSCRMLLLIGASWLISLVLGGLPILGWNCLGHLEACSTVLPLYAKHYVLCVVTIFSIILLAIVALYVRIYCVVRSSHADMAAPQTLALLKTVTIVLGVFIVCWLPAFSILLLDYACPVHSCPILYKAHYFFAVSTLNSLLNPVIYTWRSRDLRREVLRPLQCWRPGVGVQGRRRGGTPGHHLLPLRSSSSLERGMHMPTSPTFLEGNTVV
Procedure, shortened: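 Scintillation proximity read-out after 2 h room-temperature incubation of compound, [3H]S1P and S1PR2-overexpressing cell membranes on WGA-coated beads. Buffer: 20 mM Tris pH 7.5, 100 mM NaCl, 10 mM MgCl2, 1 mM Na3VO4, 0.4% fatty-acid-free BSA; plates counted immediately after centrifugation.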

[4] = system: HFL-1 cells; experiment: IL-8 production assay (S1P induced IL-8); format: cell-based; settings: Homo sapiens, HFL1; S1P (1 μM) induced IL-8 in HFL-1 cells, starvation medium without HSA; read-out: IL8 EC50
Procedure, shortened: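 HFL-1 fibroblasts in low-serum medium were pretreated 1 h with a 10-point 1/3 series of compound starting at 30 μM (0.3% DMSO).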

[5] = system: HFL-1 cells; experiment: IL8 assay in the presence of Human Serum Albumin; settings: HFL1, read-out: HSA IL8 EC50
[6] = molecular target: T4, human GPCR sphingosine 1-phosphate receptor 1 (Homo sapiens, UniProt P21453); experiment: S1PR1 selectivity Ca2+ flux assay (antagonist readout); format: cell-based; settings: antagonist readout, CHO cells overexpressing human S1PR1 and Gq, S1P at EC80 (6 nM); read-out: S1P1 EC50 (nM), S1P1 antagonist EC50
T4 construct: host or cells: CHO
T4 sequence (P21453 whole entry): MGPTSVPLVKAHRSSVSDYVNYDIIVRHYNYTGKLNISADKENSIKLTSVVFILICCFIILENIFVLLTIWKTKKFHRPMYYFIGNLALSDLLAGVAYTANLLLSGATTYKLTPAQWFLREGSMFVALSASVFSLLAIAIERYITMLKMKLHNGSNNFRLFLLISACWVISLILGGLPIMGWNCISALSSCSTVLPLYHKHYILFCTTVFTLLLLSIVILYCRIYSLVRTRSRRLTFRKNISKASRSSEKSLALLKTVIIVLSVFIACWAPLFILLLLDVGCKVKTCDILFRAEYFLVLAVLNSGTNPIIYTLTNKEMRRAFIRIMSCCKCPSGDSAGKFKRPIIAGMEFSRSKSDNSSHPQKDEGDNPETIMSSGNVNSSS
Method: as §1
After an incubation of 15 min at 37° C., following the agonist readout, the plates are transferred to the FDSS/pCELL reader. […] The ratio of maximal signal over background before S1P injection was used to determine the inhibitory effect ofthe compound.
as §2, §3

T1 sequence (O95136 whole entry): as the sequence (O95136 whole entry) above

Row | EC50 [1] [nM] | EC50 [2] [nM] | EC50 [3] [nM] | EC50 [4] [nM] | EC50 [5] [nM] | EC50 [6] [nM] | SMILES
1 | 13.7 | 19800 | 15.6 | 6.14 | 41.4 | – | O=C(Cn1nc(Cc2nc3cc(Cl)c(OCC4CC4)cc3[nH]2)c2ccccc2c1=O)NC1CCCC1 [Compound 150, 2-[4-[[5-chloro-6-(cyclopropylmethoxy)-1H-benzimidazol-2-yl]methyl]-1-oxo-phthalazin-2-yl]-N-cyclopentyl-acetamide]
2 | 3.56 | 6610 | 44.9 | – | 322 | – | O=C(O)Cc1nn(Cc2cn3cc(OCC4CC4)c(C(F)(F)F)cc3n2)c2ccccc2c1=O [Compound 99, 2-[1-[[6-(cyclopropylmethoxy)-7-(trifluoromethyl)imidazo[1,2-a]pyridin-2-yl]methyl]-4-oxo-cinnolin-3-yl]acetic acid]
3 | 179 | – | 113 | 111 | 3460 | ≥ 19900 | CCOc1cc2cn(Cc3nn(CC(=O)O)c(=O)c4ccccc34)nc2cc1Cl [Compound 251, 2-[4-[(6-chloro-5-ethoxy-indazol-2-yl)methyl]-1-oxo-phthalazin-2-yl]acetic acid]
4 | 22.2 | – | – | 60.7 | 5710 | ≥ 19800 | O=C(O)C1CCC1n1nc(Cn2cc3cc(OCC4CC4)c(Cl)cc3n2)c2ccccc2c1=O (centres unmarked) [Compound 91, 2-[4-[[6-chloro-5-(cyclopropylmethoxy)indazol-2-yl]methyl]-1-oxo-phthalazin-2-yl]cyclobutanecarboxylic acid]
5 | 42.6 | – | 80.2 | 89.3 | 330 | ≥ 19900 | O=C(Cn1nc(Cc2nc3cc(Cl)c(OC(F)(F)F)cc3[nH]2)c2c(c1=O)CCCC2)N1CCOCC1 [Compound 145, 4-[[5-chloro-6-(trifluoromethoxy)-1H-benzimidazol-2-yl]methyl]-2-(2-morpholino-2-oxo-ethyl)-5,6,7,8-tetrahydrophthalazin-1-one]
6 | 23.7 | – | 154 | 418 | 917 | ≥ 19900 | O=C(O)Cn1nc(Cc2nc3cc(Cl)c(OC(F)(F)F)cc3[nH]2)c2c(c1=O)CCCC2 [Compound 113, 2-[4-[[5-chloro-6-(trifluoromethoxy)-1H-benzimidazol-2-yl]methyl]-1-oxo-5,6,7,8-tetrahydrophthalazin-2-yl]acetic acid]
7 | 184 | – | 182 | 290 | 4130 | ≥ 19900 | O=C(O)Cn1nc(Cn2cc3cc(OCC(F)F)c(Cl)cc3n2)c2ccccc2c1=O [Compound 253, 2-[4-[[6-chloro-5-(2,2-difluoroethoxy)indazol-2-yl)methyl]-1-oxo-phthalazin-2-yl]acetic acid]
8 | 41.5 | – | 32.1 | 68.9 | 785 | ≥ 19900 | O=C(Cn1nc(Cn2cc3cc(OCC4CC4)c(Cl)cc3n2)c2ccccc2c1=O)N1CCOCC1 [Compound 148, 4-[[6-chloro-5-(cyclopropylmethoxy)indazol-2-yl]methyl]-2-(2-morpholino-2-oxo-ethyl)phthalazin-1-one]
9 | 62.6 | – | 239 | 145 | 16500 | ≥ 19900 | O=C(O)Cn1nc(Cn2cc3cc(OCC(F)(F)F)c(Cl)cc3n2)c2ccccc2c1=O [Compound 252, 2-[4-[[6-chloro-5-(2,2,2-trifluoroethoxy)indazol-2-yl]methyl]-1-oxo-phthalazin-2-yl]acetic acid]
10 | 21 | – | 59.4 | 105 | 3180 | ≥ 19900 | CCOc1cc2cn(Cc3nn(CC(=O)O)c(=O)c4ccccc34)nc2cc1Br [Compound 137, 2-[4-[(6-bromo-5-ethoxy-indazol-2-yl)methyl]-1-oxo-phthalazin-2-yl]acetic acid]
11 | 21.1 | – | 70.6 | 130 | – | ≥ 19900 | O=C(Cn1nc(Cc2nc3cc(OC(F)(F)F)c(Cl)cc3[nH]2)c2ccccc2c1=O)NC1CCS(=O)(=O)CC1 [Compound 141, 2-[4-[[6-chloro-5-(trifluoromethoxy)-1H-benzimidazol-2-yl]methyl]-1-oxo-phthalazin-2-yl]-N-(1,1-dioxothian-4-yl)acetamide]
12 | – | – | 3090 | 5180 | 1950 | ≥ 19800 | CN1CCC(n2nc(Cc3nc4cc(OCC(F)F)c(C#N)cc4[nH]3)c3ccccc3c2=O)C1 (centres unmarked) [Compound 72, 6-(2,2-difluoroethoxy)-2-[[3-(1-methylpyrrolidin-3-yl)-4-oxo-phthalazin-1-yl]methyl]-3H-benzimidazole-5-carbonitrile]
13 | – | – | – | 541 | 1640 | ≥ 19900 | O=C(O)Cn1nc(Cc2nc3cc(OC(F)(F)F)c(Cl)cc3[nH]2)c2ccccc2c1=O [Compound 112, 2-[4-[[6-chloro-5-(trifluoromethoxy)-1H-benzimidazol-2-yl]methyl]-1-oxo-phthalazin-2-yl]acetic acid]
14 | 30.1 | – | 103 | 191 | 952 | ≥ 19900 | O=C(Cn1nc(Cc2nc3cc(OC(F)(F)F)c(Cl)cc3[nH]2)c2ccccc2c1=O)N1CCOCC1 [Compound 142, 4-[[6-chloro-5-(trifluoromethoxy)-1H-benzimidazol-2-yl]methyl]-2-(2-morpholino-2-oxo-ethyl)phthalazin-1-one]
15 | 13 | – | 29.8 | 114 | 1110 | ≥ 19900 | O=C(Cn1nc(Cc2nc3cc(OC(F)(F)F)c(Cl)cc3[nH]2)c2ccccc2c1=O)N[C@H]1CCC[C@H]1O [Compound 140, 2-[4-[[6-chloro-5-(trifluoromethoxy)-1H-benzimidazol-2-yl]methyl]-1-oxo-phthalazin-2-yl]-N-[(1S,2R)-2-hydroxycyclopentyl]acetamide]
16 | – | 19800 | – | 3.99 | 217 | – | CC(C(=O)O)n1nc(Cn2cc3cc(OCC4CC4)c(Cl)cc3n2)c2ccccc2c1=O (centres unmarked) [compound 3, 2-[4-[[6-chloro-5-(cyclopropyl-methoxy)indazol-2-yl]methyl]-1-oxo-phthalazin-2-yl]propanoic acid]
17 | – | – | – | 26 | – | ≥ 19900 | COc1cc2nc(Cc3nn(CC(=O)O)c(=O)c4ccccc34)[nH]c2cc1Cl [Compound 136, 2-[4-[(6-chloro-5-methoxy-1H-benzimidazol-2-yl)methyl]-1-oxo-phthalazin-2-yl]acetic acid]
